pIC50: −log10 of the molar value.
biological target: T1, P2X purinoceptor 7 (Homo sapiens, UniProt Q99572); experiment: SUPPLEMENTARY: Inhibition of human P2X7 receptor assessed as inhibition of ethidium bromide accumulation. Same assay as CHEMBL1103860
T1 sequence (Q99572 whole entry): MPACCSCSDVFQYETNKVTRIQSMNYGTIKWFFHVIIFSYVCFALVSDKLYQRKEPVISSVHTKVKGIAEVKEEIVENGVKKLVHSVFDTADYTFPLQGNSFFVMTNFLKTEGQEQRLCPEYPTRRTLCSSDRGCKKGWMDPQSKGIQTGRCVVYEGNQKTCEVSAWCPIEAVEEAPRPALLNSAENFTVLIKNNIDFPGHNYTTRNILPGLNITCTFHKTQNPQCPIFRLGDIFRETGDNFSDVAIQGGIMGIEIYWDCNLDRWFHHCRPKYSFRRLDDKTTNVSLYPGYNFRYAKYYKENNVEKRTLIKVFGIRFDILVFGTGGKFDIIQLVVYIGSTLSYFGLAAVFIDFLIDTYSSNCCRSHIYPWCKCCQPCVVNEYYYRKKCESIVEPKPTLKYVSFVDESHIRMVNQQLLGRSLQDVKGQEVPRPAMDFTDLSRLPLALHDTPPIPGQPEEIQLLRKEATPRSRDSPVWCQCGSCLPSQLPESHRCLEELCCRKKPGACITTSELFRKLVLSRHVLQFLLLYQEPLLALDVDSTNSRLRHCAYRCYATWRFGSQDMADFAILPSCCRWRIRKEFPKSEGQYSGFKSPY

In order of rising pIC50:
1. O=C(c1ccc(Cl)cc1Cl)N1CCN(c2ccc(F)cc2F)C(=O)C1  6.10
2. Cc1nn(-c2ccccc2)c(C)c1CC(=O)NCc1cc(Cl)ccc1Cl  6.20
3. O=C(c1ccc(F)cc1Cl)N1CCn2c(Br)cnc2C1  6.30
4. CC(C)N1[C@H](C(=O)NCc2ccc(Cl)cc2Cl)CCCS1(=O)=O  6.30
5. Cc1cnccc1N1CCN(Cc2ccc(F)cc2Cl)C(=O)C1=O  6.30
6. Cc1nn(C2CCCC2)c(C)c1CC(=O)NCc1ccc(F)cc1Cl  6.30
7. COCCn1nc(C)c(CC(=O)NCc2ccc(F)cc2Cl)c1C  6.40
8. Cc1nn(C(C)(C)C)c(C)c1CC(=O)NCc1ccc(F)cc1Cl  6.40
9. Cn1ccnc1-c1nnc2n1CCN(C(=O)c1ccc(F)cc1Cl)C2  6.50
10. Cc1nn(Cc2ccncc2)c(C)c1CC(=O)NCc1ccc(F)cc1Cl  6.50
11. CCN1C(=O)OC[C@@H]1C(=O)NCc1ccc(F)cc1Cl  6.50
12. O=C1CN(C(=O)c2cccc(C(F)(F)F)c2Cl)CCN1Cc1ccncc1  6.50
13. O=C1C(=O)N(c2cccc3c2OCCO3)CCN1Cc1ccc(F)cc1Cl  6.60
14. O=C(c1cccc(C(F)(F)F)c1Cl)N1CCn2c(nnc2N2CCOCC2)C1  6.60
15. Cc1nn(Cc2ccccc2N(C)C)c(C)c1CC(=O)NCc1ccc(F)cc1Cl  6.60
16. Cc1nn(CCN2CCOCC2)c(C)c1CC(=O)NCc1ccc(F)cc1Cl  6.60
17. Cc1nc[nH]c1CN1C[C@@H](C(=O)NCc2ccc(F)c(F)c2Cl)N(C)C1=O  6.70
18. Cc1nn(-c2cccc(F)c2)c(C)c1CC(=O)NCc1ccc(F)cc1Cl  6.70
19. CCn1nc(C)c(CC(=O)NCc2ccc(F)cc2Cl)c1C  6.70
20. Cc1nn(-c2ncc(Cl)cc2Cl)c(C)c1CC(=O)NCc1ccc(F)cc1Cl  6.70
21. CN1CCN(C(=O)c2cccc(Cl)c2Cl)CC1=O  6.70
22. CC(C)c1ccnc(N2C[C@@H](C(=O)NCc3ccc(Cl)cc3Cl)N(C)C2=O)n1  6.80
23. CN1C(=O)NC[C@H]1C(=O)NCc1ccc(Cl)c(C(F)(F)F)c1  6.80
24. O=C1CN(C(=O)c2cccc(C(F)(F)F)c2Cl)CCN1Cc1ccccn1  6.80
25. CC(C)CN1[C@H](C(=O)NCc2ccc(Cl)cc2Cl)CCS1(=O)=O  6.80
26. CCN1C(=O)CC[C@@H]1C(=O)NCc1ccc(Cl)cc1C  6.90
27. Cc1nn(C2CCN(C)CC2)c(C)c1CC(=O)NCc1ccc(F)cc1Cl  6.90
28. CC(C)N1CCN(C(=O)c2cccc(Cl)c2Cl)CC1=O  6.90
29. Cc1nn(CCN2CCCC2)c(C)c1CC(=O)NCc1ccc(F)cc1Cl  6.90
30. Cc1ccccc1N1CCN(Cc2ccc(F)cc2C(F)(F)F)C(=O)C1=O  6.90
31. O=C(c1ccc(F)c(Cl)c1F)N1CCN(c2ccc(F)cc2Cl)C(=O)C1  7.00
32. O=C1CN(C(=O)c2cccc(C(F)(F)F)c2Cl)CCN1CC1CCCO1 (centres undefined)  7.10
33. Cc1ccc(N2CCCC2)cc1N1CCN(C(=O)c2cccc(C(F)(F)F)c2Cl)CC1=O  7.10
34. Cc1nn(-c2ccccc2)c(C)c1CC(=O)NCc1ccc(F)c(F)c1F  7.20
35. O=C(c1cccc(C(F)(F)F)c1Cl)N1CCN(c2ccc(F)cc2F)C(=O)C1  7.20
36. CC(C)CN1CC(C(=O)NCc2cccc(C(F)(F)F)c2Cl)CC1=O (centres undefined)  7.20
37. O=C(c1ccccc1Cl)N1CCn2c(-c3ccccc3)cnc2C1  7.30
38. Cc1c(N2CCN(Cc3ccc(F)cc3Cl)C(=O)C2=O)cccc1-n1ccnc1  7.30
39. O=C1C(=O)N(c2cccc3c2CCCC3)CCN1Cc1ccc(F)cc1Cl  7.30
40. Cc1ncccc1N1C[C@@H](C(=O)NCc2ccc(F)cc2Cl)N(C)C1=O  7.30
41. CN1C(=O)N(c2cccnc2)C[C@H]1C(=O)NCc1ccc(F)cc1Cl  7.30
42. CCN1C(=O)C(C)(C)C[C@H]1C(=O)NCc1ccc(F)cc1Cl  7.30
43. CN1C(=O)N(c2cc(C(F)(F)F)ncn2)C[C@H]1C(=O)NCc1ccc(F)c(F)c1Cl  7.30
44. CCN1[C@H](C(=O)NCc2cccc(Cl)c2C)CCS1(=O)=O  7.30
45. O=C(c1cccc(C(F)(F)F)c1Cl)N1CCn2cc(C(F)(F)F)nc2C1  7.40
46. Cc1cccc(C)c1N1CCN(Cc2ccc(F)c(F)c2F)C(=O)C1=O  7.40
47. Cc1ccc(F)cc1N1CCN(Cc2ccc(F)cc2Cl)C(=O)C1=O  7.40
48. Cn1ncc(I)c1CC(=O)NCc1ccc(Cl)cc1Cl  7.40
49. O=C(c1ccc(Cl)c(C(F)(F)F)c1)N1CCn2c(nnc2-c2cnccn2)C1  7.50
50. CN1C(=O)N(c2cccnc2C#N)C[C@H]1C(=O)NCc1ccc(Cl)cc1Cl  7.50
51. CCN1C(=O)[C@H](Cc2ccccc2)C[C@H]1C(=O)NCc1cccc(C(F)(F)F)c1Cl  7.50
52. O=C1C(=O)N(c2ccccc2OC(F)(F)F)CCN1Cc1ccc(F)cc1Cl  7.50
53. O=C(NCc1cccc(C(F)(F)F)c1Cl)C1CC(=O)N(C2CC2)C1 (centres undefined)  7.50
54. Cc1cccnc1N1C[C@@H](C(=O)NCc2ccc(F)c(F)c2Cl)N(C)C1=O  7.60
55. C[C@@H]1CN(Cc2ccc(Cl)cc2Cl)C(=O)C(=O)N1c1ccccc1  7.60
56. COc1cccc(-c2nnc3n2CCN(C(=O)c2ccc(F)cc2Cl)C3)c1  7.60
57. O=C(c1cccc(C(F)(F)F)c1Cl)N1CCn2c(nnc2-c2ccncc2)C1  7.60
58. O=C(c1cccc(C(F)(F)F)c1Cl)N1CCn2c(nnc2N2CCC2)C1  7.60
59. O=C(c1cccc(C(F)(F)F)c1Cl)N1CCn2c(nnc2C2CCCC2)C1  7.60
60. O=C(c1ccc(Cl)cc1Cl)N1CCN(c2ccccc2Cl)C(=O)C1  7.60
61. COc1ccnc(N2C[C@@H](C(=O)NCc3ccc(Cl)cc3Cl)N(C)C2=O)n1  7.70
62. Cc1c(Cl)cccc1CNC(=O)[C@@H]1CCC(=O)N1C1CCC1  7.80
63. CN1C(=O)N(c2nccc(C(F)(F)F)n2)C[C@H]1C(=O)NCc1cccc(C(F)(F)F)c1Cl  7.80
64. O=C1C(=O)N(c2ccccc2C(F)(F)F)CCN1Cc1ccc(F)cc1Cl  7.80
65. O=C1C(=O)N(c2cc(F)ccc2N2CCOCC2)CCN1Cc1ccc(F)cc1Cl  7.80
66. CCN(CC)c1ccc(N2CCN(Cc3ccc(F)cc3Cl)C(=O)C2=O)c(C)c1  7.90
67. O=C(c1ccc(F)cc1Cl)N1CCn2c(nnc2-c2ccccc2)C1  7.90
68. O=C(c1ccc(F)cc1Cl)N1CCn2c(nnc2-c2cccc(Cl)c2)C1  7.90
69. CCc1ccccc1N1CCN(Cc2ccc(F)cc2Cl)C(=O)C1=O  8.00
70. CC(C)Oc1cc(F)ccc1N1CCN(C(=O)c2cccc(C(F)(F)F)c2Cl)CC1=O  8.00
71. O=C(NCc1ccc(F)c(F)c1Cl)[C@@H]1CCC(=O)N1C1CCC1  8.00
72. COc1ccc(N2C[C@@H](C(=O)NCc3cccc(C(F)(F)F)c3Cl)N(C)C2=O)cn1  8.10
73. CCC(CC)N1CCN(C(=O)c2cccc(C(F)(F)F)c2Cl)CC1=O  8.20
74. CN1C(=O)N(CC2CCC2)CC1C(=O)NCc1ccc(Cl)cc1Cl (centres undefined)  8.30
75. Cc1c(CNC(=O)[C@@H]2CCC(=O)N2C2CCC2)cccc1C(F)(F)F  8.50
76. CCN1C[C@@H](C(=O)NCc2ccc(Cl)cc2Cl)N(C)C1=O  8.50
77. O=C(c1cccc(Cl)c1Cl)N1CCn2c(nnc2-c2ccc[nH]2)C1  8.60
78. CN1C(=O)N(CC(F)(F)F)C[C@H]1C(=O)NCc1ccc(Cl)cc1Cl  8.70
79. Cc1cc(Cl)cc(Cl)c1CNC(=O)[C@@H]1CCC(=O)N1C  8.90

— ChEMBL document CHEMBL2218064, “Structure-activity relationship data for chemical series of antagonists of the P2X7 receptor (Supplementary Bioactivity Data for publication CHEMBL1157114)”
